Values of other authors in patent publication US20220395497A1, “Cancer Treatment Using Camptothecin Derivatives” (priority 2019, published 2022).
Like-named read-outs stand apart in the source and are kept apart here. Marks after values point to notes of the source that are not given here.

Tests used:
[1] = in vivo; cited from earlier work
[2] = system: cells in the S phase of the cell cycle; details: in vitro; cited from earlier work
[3] = system: BCBM patients; details: Phase 3 BEACON Study, N = 425; cited from earlier work
[4] = system: GBM/AA patients; details: single agent Phase II, N = 20 in heavily pretreated bev failures; cited from earlier work
[5] = system: Metastatic Colorectal cancer patients; details: previously treated, cited from earlier work
[6] = system: Colorectal cancer patients; details: single agent, bolus, N = 223; cited from earlier work
[7] = system: Colorectal cancer patients; details: w/5FU, LV, bolus, N = 225; cited from earlier work
[8] = system: Recurrent Colorectal cancer patients; details: N = 316 across 2 studies, cited from earlier work
[9] = system: reGBM patients; details: single agent vs Enzastaurin, N = 92, Treated = 84; cited from earlier work
[10] = system: reGBM patients; details: single agent/placebo, N = 64; cited from earlier work
[11] = system: reGBM patients; details: cited from earlier work
[12] = system: reGBM patients; details: cited from earlier work; for Diarrhoea Grades 3-5 / Neutropenia Grades 3-4 / Thrombocytopenia Grades 3-4: reGBM, single agent

Compound: CC[C@@]1(O)C(=O)OCc2c1cc1n(c2=O)Cc2cc3c(CN(C)C)c(O)ccc3nc2-1 [topotecan]
- ratio of the lactone AUC to total AUC [1]: 0.37

Compound: CCc1c2c(nc3ccc(O)cc13)-c1cc3c(c(=O)n1C2)COC(=O)[C@]3(O)CC [SN-38]
- ratio of the lactone AUC to total AUC [1]: 0.51

Compound: CC[C@@]1(O)C(=O)OCc2c1cc1n(c2=O)Cc2cc3ccccc3nc2-1 [camptothecin]
- sensitivity to camptothecin-induced apoptosis, S phase cells vs cells in the G1 or G2 phase [2]: 100 to 1,000 times

Compound: Etirinotecan
- Diarrhoea Grades 3-5 [3]: 10%
- Nausea Grades 3-5 [3]: 4%
- Neutropenia Grades 3-4 [3]: 10%
- Diarrhoea Grades 3-5 [4]: 10%

Compound: CCc1c2c(nc3ccc(OC(=O)N4CCC(N5CCCCC5)CC4)cc13)-c1cc3c(c(=O)n1C2)COC(=O)[C@]3(O)CC [Irinotecan]
- Diarrhoea Grade 4 ([5]; N = 304, late diarrhoea): 14%**
- Nausea Grades 3,4 ([5]; N = 304): 17%
- Neutropenia Grade 4 ([5]; N = 304): 12%
- Vomiting Grades 3,4 ([5]; N = 304): 12%
- Diarrhoea Grade 4 [6]: 7%
- Nausea Grades 3,4 [6]: 16%
- Neutropenia Grade 4 [6]: 12%
- Vomiting Grades 3,4 [6]: 12%
- Diarrhoea Grade 4 [7]: 5%
- Nausea Grades 3,4 [7]: 16%
- Neutropenia Grade 4 [7]: 24%
- Vomiting Grades 3,4 [7]: 10%
- Diarrhoea Grade 4 ([8]; average across 2 studies): 22%*
- Nausea Grades 3,4 ([8]; average across 2 studies): 12%*
- Vomiting Grades 3,4 ([8]; average across 2 studies): 14%*
- Neutropenia Grade 4 [8]: 18%

Compound: O=NN(CCCl)C(=O)NC1CCCCC1 [Lomustine]
- Nausea Grades 3-5 [9]: 0%
- Neutropenia Grades 3-4 [9]: 20%
- Thrombocytopenia Grades 3-4 [9]: 25%
- Diarrhoea Grades 3-5 [10]: 2%
- Neutropenia Grades 3-4 [10]: 3%
- Thrombocytopenia Grades 3-4 [10]: 22%

Compound: CC[C@@]1(O)C(=O)OCc2c1cc1n(c2=O)Cc2c-1nc1ccccc1c2CC[Si](C)(C)C [Karenitecin]
- neutropenia and thrombocytopenia, patients ([11]; Phase I trial): 13-23%
- Diarrhoea Grades 3-5 ([11]; reGBM, single agent, N = 30): 3%
- Neutropenia Grades 3-4 ([11]; reGBM, single agent, N = 30): 23%
- Thrombocytopenia Grades 3-4 ([11]; reGBM, single agent, N = 30): 13%

Compound: CC[C@@]1(O)C(=O)OCc2c1cc1n(c2=O)Cc2c-1nc1ccccc1c2/C=N/OC(C)(C)C [Gimatecan]
- treatment-related toxicities of thrombocytopenia, leukopenia, and neutropenia, patients ([12]; Phase II trial, oral): 10-18%
- PFS6 ([12]; in vivo): 12%
- Diarrhoea Grades 3-5 ([12]; N = 10 High Dose): 0%
- Neutropenia Grades 3-4 ([12]; N = 10 High Dose): 30%
- Thrombocytopenia Grades 3-4 ([12]; N = 10 High Dose): 40%
- Diarrhoea Grades 3-5 ([12]; N = 10 Low Dose): 0%
- Neutropenia Grades 3-4 ([12]; N = 10 Low Dose): 0%
- Thrombocytopenia Grades 3-4 ([12]; N = 10 Low Dose): 5%
